Measured values reported in ChEMBL document CHEMBL5055656, “Synthesis of novel indole-thiazolidinone hybrid structures as promising scaffold with anticancer potential” (Bioorg Med Chem, 2021).
The source made the active and inactive calls. No cut-off for these calls is given here.

Columns and labels:
[1] = Selectivity index, ratio of GI50 for mouse BALA/3T3 cells to GI50 for human THP-1 cells
[2] = Selectivity index, ratio of GI50 for mouse BALA/3T3 cells to GI50 for human HepG2 cells measured after 24 hrs by coomassie brilliant blue staining based total cellular protein assay; assay type: toxicity; conditions: BALA/3T3 cells versus HepG2 cells, read-out: Selectivity Index
[3] = tested on: BALB/3T3; assay: (§1) Cytotoxicity against mouse BALB/3T3 cells assessed as cell growth inhibition measured after 24 hrs by MTT assay; assay type: cell-based; conditions: balb/3t3, 24 h
[4] = as §1; assay type: cell-based; conditions: BALB/3T3 cells
[5] = Selectivity index, ratio of GI50 for mouse BALA/3T3 cells to GI50 for human HepG2 cells measured after 48 hrs by neutral red uptake assay; assay type: toxicity; conditions: BALA/3T3 cells versus HepG2 cells, read-out: Selectivity Index
[6] = Selectivity index, ratio of GI50 for mouse BALA/3T3 cells to GI50 for human MCF7 cells; assay type: toxicity; conditions: BALA/3T3 cells versus MCF7 cells, read-out: RatioGI50
[7] = Selectivity index, ratio of GI50 for mouse BALA/3T3 cells to GI50 for human HepG2 cells measured after 48 hrs by coomassie brilliant blue staining based total cellular protein assay; assay type: toxicity; conditions: BALA/3T3 cells versus HepG2 cells, read-out: Selectivity Index
[8] = Selectivity index, ratio of GI50 for human HaCaT cells to GI50 for human A549 cells; assay type: toxicity; conditions: HaCaT cells versus A549 cells, read-out: RatioGI50
[9] = tested on: MCF7; assay: Cytotoxicity against human MCF7 cells assessed as cell growth inhibition measured after 72 hrs by MTT assay; assay type: functional
[10] = tested on: BALB/3T3; assay: (§2) Cytotoxicity against mouse BALB/3T3 cells assessed as cell growth inhibition measured after 24 hrs by LDH assay; assay type: cell-based; conditions: balb/3t3, 24 h
[11] = as §2; assay type: cell-based; conditions: BALB/3T3 cells
[12] = tested on: HepG2; assay: Induction of apoptosis in human HepG2 cells assessed as activation of cleaved PARP1 expression at 0.7 uM incubated for 24 hrs by Western blot analysis; assay type: functional, cell-based
[13] = tested on: BALB/3T3; assay: (§3) Cytotoxicity against mouse BALB/3T3 cells assessed as cell growth inhibition measured after 72 hrs by neutral red uptake assay; assay type: cell-based; conditions: balb/3t3, 72 h
[14] = as §3; assay type: cell-based; conditions: BALB/3T3 cells
[15] = tested on: HepG2; assay: Induction of cell cycle arrest in human HepG2 cells assessed as effect of phospho-Rb expression at 45 uM measured after 24 hrs by Western blot analysis; assay type: functional, cell-based
[16] = tested on: HepG2; assay: Induction of apoptosis in human HepG2 cells assessed as increase in Cdk2 expression at 45 uM after 24 hrs by Western blot analysis; assay type: functional, cell-based
[17] = Selectivity index, ratio of GI50 for mouse BALA/3T3 cells to GI50 for human HeLa cells; assay type: toxicity; conditions: BALA/3T3 cells versus HeLa cells, read-out: RatioGI50
[18] = Selectivity index, ratio of GI50 for mouse BALA/3T3 cells to GI50 for human HepG2 cells measured after 48 hrs by LDH assay; assay type: toxicity; conditions: BALA/3T3 cells versus HepG2 cells, read-out: Selectivity Index
[19] = tested on: HepG2; assay: Induction of DNA damage in human HepG2 cells assessed as increase in olive tail moment incubated at 0.7 uM measured after 24 hrs by alkaline Comet assay; assay type: functional
[20] = tested on: A549; assay: Cytotoxicity against human A549 cells assessed as cell growth inhibition measured after 72 hrs by MTT assay; assay type: functional
[21] = tested on: BALB/3T3; assay: (§4) Cytotoxicity against mouse BALB/3T3 cells assessed as cell growth inhibition measured after 24 hrs by neutral red uptake assay; assay type: cell-based; conditions: balb/3t3, 24 h
[22] = as §4; assay type: cell-based; conditions: BALB/3T3 cells
[23] = tested on: HCT-116; assay: Induction of cell cycle arrest in human HCT-116 cells assessed as decrease in phospho-Rb expression at 45 uM measured after 24 hrs by Western blot analysis; assay type: functional, cell-based
[24] = Cytotoxicity against mouse BALB/3T3 cells assessed as cell growth inhibition measured after 72 hrs by MTT assay; assay type: cell-based
[25] = Cytotoxicity against human HaCaT cells assessed as cell growth inhibition measured after 72 hrs by MTT assay; assay type: cell-based
[26] = tested on: MCF7; assay: Induction of apoptosis in human MCF7 cells assessed as decrease in Cdk2 expression at 45 uM after 24 hrs by Western blot analysis; assay type: functional, cell-based
[27] = tested on: HCT-116; assay: Induction of DNA damage in human HCT-116 cells assessed as increase in tail length at 0.7 uM incubated measured after 24 hrs by alkaline Comet assay; assay type: functional, cell-based
[28] = tested on: HCT-116; assay: Induction of apoptosis in human HCT-116 cells assessed as activation of cleaved PARP1 expression at 0.7 uM incubated for 24 hrs by Western blot analysis; assay type: functional, cell-based
[29] = Selectivity index, ratio of GI50 for human HaCaT cells to GI50 for human HCT-116 cells; assay type: toxicity; conditions: HaCaT cells versus HCT-116 cells, read-out: RatioGI50
[30] = Selectivity index, ratio of GI50 for mouse BALA/3T3 cells to GI50 for human HepG2 cells measured after 72 hrs by neutral red uptake assay; assay type: toxicity; conditions: BALA/3T3 cells versus HepG2 cells, read-out: Selectivity Index
[31] = tested on: BALB/3T3; assay: Induction of DNA damage in mouse BALB/3T3 cells assessed as increase in tail length incubated at 55 uM measured after 24 hrs by alkaline Comet assay; assay type: cell-based; conditions: balb/3t3, 24 h
[32] = tested on: Salmon testes DNA; assay: Displacement of methyl green from salmon sperm DNA at 1 uM measured after 2 hrs by fluorescence plate reader method relative to control; assay type: cell-based; conditions: Salmo salar, Spermatozoa
[33] = tested on: BALB/3T3; assay: (§5) Cytotoxicity against mouse BALB/3T3 cells assessed as cell growth inhibition measured after 48 hrs by coomassie brilliant blue staining based total cellular protein assay; conditions: balb/3t3, 48 h
[34] = as §5; conditions: BALB/3T3 cells
[35] = tested on: HCT-116; assay: Induction of DNA damage in human HCT-116 cells assessed as increase in tail length incubated at 0.7 uM measured after 24 hrs by alkaline Comet assay relative to control; assay type: functional
[36] = Selectivity index, ratio of GI50 for mouse BALA/3T3 cells to GI50 for human HepG2 cells measured after 72 hrs by coomassie brilliant blue staining based total cellular protein assay; assay type: toxicity; conditions: BALA/3T3 cells versus HepG2 cells, read-out: Selectivity Index
[37] = Selectivity index, ratio of GI50 for mouse BALA/3T3 cells to GI50 for human HCT-116 cells; assay type: toxicity; conditions: BALA/3T3 cells versus HCT-116 cells, read-out: RatioGI50
[38] = tested on: HCT-116; assay: Induction of DNA damage in human HCT-116 cells assessed as increase in olive tail moment incubated at 0.7 uM measured after 24 hrs by alkaline Comet assay; assay type: functional
[39] = tested on: HeLa; assay: Cytotoxicity against human HeLa cells assessed as cell growth inhibition measured after 72 hrs by MTT assay; assay type: functional
[40] = tested on: BALB/3T3; assay: (§6) Cytotoxicity against mouse BALB/3T3 cells assessed as cell growth inhibition measured after 48 hrs by neutral red uptake assay; assay type: cell-based; conditions: balb/3t3, 48 h
[41] = as §6; assay type: cell-based; conditions: BALB/3T3 cells
[42] = tested on: HepG2; assay: Cytotoxicity against human HepG2 cells assessed as cell growth inhibition measured after 24 hrs by MTT assay; assay type: functional
[43] = tested on: HepG2; assay: Induction of DNA damage in human HepG2 cells assessed as increase in tail length incubated at 0.7 uM measured after 24 hrs by alkaline Comet assay; assay type: functional
[44] = tested on: HepG2; assay: Cytotoxicity against human HepG2 cells assessed as cell growth inhibition measured after 24 hrs by coomassie brilliant blue staining based total cellular protein assay; assay type: functional

- Activity [32]: 1.7%
SMILES: COC(=O)c1[nH]c2ccc(F)cc2c1/C=C1\SC(=S)NC1=O
- RatioGI50 [1]: 1.11
- selectivity ratio at 24 h [2]: 1
- GI20 [3]: 7.9 µM
- GI80 [3]: > 100 µM
- GI50 at 24 h [4]: 54.3 µM
- selectivity ratio at 48 h [5]: 4.1
- selectivity ratio [6]: 99.4
- selectivity ratio at 48 h [7]: 2
- selectivity ratio [8]: 7.17
- GI50 [9]: 0.7 µM
- GI20 [10]: > 100 µM
- GI80 [10]: > 100 µM
- GI50 at 24 h [11]: > 100 µM
- Activity [12]: Active
- GI20 [13]: 0.7 µM
- GI80 [13]: > 100 µM
- GI50 at 72 h [14]: 51.5 µM
- Activity [15]: inactive
- Activity [16]: Active
- selectivity ratio [17]: 1.41
- selectivity ratio at 48 h [18]: 1500
- Activity [19]: 13.2
- GI50 [20]: 9.7 µM
- GI20 [21]: 5.4 µM
- GI80 [21]: > 100 µM
- GI50 at 24 h [22]: > 100 µM
- Activity [23]: Active
- GI50 at 72 h [24]: 40.8 µM
- GI50 at 72 h [25]: 98.3 µM
- Activity [26]: Active
- Activity [27]: Active
- Activity [28]: Active
- selectivity ratio [29]: 86.9
- selectivity ratio at 72 h [30]: 8.9
- Activity [31]: 8.4%
- GI20 [33]: 3.7 µM
- GI80 [33]: > 100 µM
- GI50 at 48 h [34]: > 100 µM
- Activity [35]: 16.1%
- selectivity ratio at 72 h [36]: 3
- selectivity ratio [37]: 86.9
- Activity [38]: 3.1
- GI50 [39]: 49.3 µM
- GI20 [40]: 2.4 µM
- GI80 [40]: > 100 µM
- GI50 at 48 h [41]: > 100 µM
- GI20 [42]: 3 µM
- GI80 [42]: 95.6 µM
- GI50 ([42]; Homo sapiens, HepG2): 44.7 µM
- Activity [43]: 26.2%
- GI20 [44]: 3.7 µM
- GI80 [44]: >100 µM
- GI50 ([44]; Homo sapiens, HepG2): > 100 µM
